In patent US9290476B2, “Methylene linked quinolinyl modulators of RORγt” (Janssen Pharmaceutica NV, priority 2012, dated 2016):
Where a name gives a salt, the structure may show the parent alone.

Experiments:
[1] = target: human RORγt LBD (Homo sapiens (Human), UniProt P51449); assay: RORγt reporter assay (GAL4-RORγt LBD luciferase in HEK293T cells); format: cell-based; conditions: for IC50: 24 hours compound treatment; for inhibition at 6 µM: HEK-293T, read-out: RORγt reporter Assay, % inhibition @ 6 μM, HEK293T cells, 6 μM
Sequence of human RORγt LBD (P51449 258-518): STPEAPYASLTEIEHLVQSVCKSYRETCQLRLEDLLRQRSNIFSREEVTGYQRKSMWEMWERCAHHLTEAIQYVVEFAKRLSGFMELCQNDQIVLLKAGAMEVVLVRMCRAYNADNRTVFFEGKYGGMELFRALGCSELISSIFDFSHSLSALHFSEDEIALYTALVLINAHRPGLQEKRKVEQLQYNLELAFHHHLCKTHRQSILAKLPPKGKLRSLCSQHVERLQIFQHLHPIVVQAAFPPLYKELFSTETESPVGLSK
Description: A reporter assay was used to test functional activity of RORγt modulatory compounds on transcriptional activation driven by the RORγt LBD. Cells used in the assay were co-transfected with two constructs. The first construct, pBIND-RORγt LBD, contained the wild type human RORγt LBD fused to the DNA binding domain of the GAL4 protein. The second construct, pGL4.31 (Promega Cat no. C935A), contained multiple GAL4 responsive DNA elements upstream of firefly luciferase. […] The mutant construct was called pBIND-RORγt-AF2.
The pBIND vector contains the GAL4 DNA Binding Domain (GAL4 DBD) and the renilla luciferase gene under control of the SV40 promoter. Renilla luciferase expression serves as a control for transfection efficiency and cell viability.
The reporter assay was performed by transiently transfecting HEK293T cells with 5 ng of pBIND-RORγt LBD or pBIND-RORγt LBD-AF2 and 5 μg pGL4.31 (Promega Cat no. C935A) using Fugene 6 ([…] Cat no. E2691) at a 1:6 ratio of DNA: Fugene 6 in a T-75 flask in which cells were at least 80% confluent. Twenty four hours after bulk transfection, cells were plated into 96-well plates at 50,000 cells/well in phenol-red free DMEM containing 5% Lipid Reduced FCS and Pen/Strep. Six hours after plating, cells were treated with compounds for 24 hours. Media was removed and cells were lysed with 50 μL 1× Glo Lysis Buffer (Promega). Dual Glo Luciferase Reagent (50 μL/well) was then added and firefly luciferase luminescence was read on an Envision after a ten minute incubation. Finally, Stop and Glo reagent (50 μL/well) was added and renilla luciferase luminescence was read on an Envision after a ten minute incubation. To calculate the effect of compounds on RORγt activity, the ratio of firefly to renilla luciferase was determined and plotted against compound concentration. Agonist compounds increase RORγt-driven luciferase expression, and antagonist or inverse agonist compounds decrease luciferase expression.

[2] = target: human RORγt ligand binding domain (RORγt LBD) (Homo sapiens (Human), UniProt P51449); assay: RORγt ThermoFluor assay (thermal shift binding affinity); conditions: estimated from thermal shift
Sequence of human RORγt ligand binding domain (RORγt LBD) (P51449 other isoform, or with tags, fused parts or gaps): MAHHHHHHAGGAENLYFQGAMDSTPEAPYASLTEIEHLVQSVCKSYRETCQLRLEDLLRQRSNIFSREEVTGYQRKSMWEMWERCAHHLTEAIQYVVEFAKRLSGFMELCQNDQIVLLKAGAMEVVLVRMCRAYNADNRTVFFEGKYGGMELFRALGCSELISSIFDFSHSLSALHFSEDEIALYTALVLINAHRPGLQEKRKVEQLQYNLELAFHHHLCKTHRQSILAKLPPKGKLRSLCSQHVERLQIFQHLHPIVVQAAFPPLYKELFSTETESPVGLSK
Description: This approach is applicable to a wide variety of systems, and rigorous in theoretical interpretation through quantitation of equilibrium binding constants (KD).
The shift in the melting point described as a ΔTm is proportional to the concentration and affinity of the ligand.
RORγt ThermoFluor® Assay Construct
Protein and compound solutions are dispensed into black 384-well polypropylene PCR microplates (Abgene) and overlayed with silicone oil (1 μL, Fluka, type DC 200) to prevent evaporation.
Bar-coded assay plates are robotically loaded onto a thermostatically controlled PCR-type thermal block and then heated at a typical ramp-rate of 1° C./min for all experiments. Fluorescence was measured by continuous illumination with UV light (Hamamatsu LC6) supplied via fiber optic and filtered through a band-pass filter (380-400 nm; >6 OD cutoff). Fluorescence emission of the entire 384-well plate was detected by measuring light intensity using a CCD camera (Sensys, Roper Scientific) filtered to detect 500±25 nm, resulting in simultaneous and independent readings of all 384 wells. Images were collected at each temperature, and the sum of the pixel intensity in a given area of the assay plate was recorded versus temperature. Reference wells contained RORγt without compounds, and the assay conditions were as follows: • 0.065 mg/mL RORγt • 60 μM 1,8-ANS • 100 mM Hepes, pH 7.0 • 10 mM NaCl • 2.5 mM GSH • 0.002% Tween-20
Project compounds were arranged in a pre-dosed mother plate (Greiner Bio-one) wherein compounds are serially diluted in 100% DMSO by 1:2 from a high concentration of 10 mM over 12 columns within a series (column 12 is a reference well containing DMSO, no compound). The compounds were robotically dispensed directly into assay plates (1×=46 nL) using a Hummingbird capillary liquid handling instrument (Digilab). Following compound dispense, protein and dye in buffer was added to achieve the final assay volume of 3 μL, followed by 1 μL of silicone oil.

COc1nc2ccc(C(O)(c3ccccc3)C3CCN(C(C)=O)CC3)cc2c(Cl)c1Cc1ccc(-n2cccn2)cc1 (racemic) [Example 83A, 1-(4-((3-(4-(1H-Pyrazol-1-yl)benzyl)-4-chloro-2-methoxyquinolin-6-yl)(hydroxy)(phenyl)methyl)piperidin-1-yl)ethanone]
IC50 ([1]; HEK293T cells): 0.039 µM | inhibition at 6 µM [1]: 104% | Kd [2]: 0.012 µM

Cn1cncc1C(O)(c1ccc(C(F)(F)F)nc1)c1ccc2nc(N3CCC3)c(Cc3ccc(C(F)(F)F)cc3)c(Cl)c2c1 (racemic) [Example 92A, (2-(Azetidin-1-yl)-4-chloro-3-(4-(trifluoromethyl)benzyl)quinolin-6-yl)(1-methyl-1H-imidazol-5-yl)(6-(trifluoromethyl)pyridin-3-yl)methanol]
IC50 ([1]; HEK293T cells): 0.029 µM | inhibition at 6 µM [1]: 100% | Kd [2]: 0.0025 µM

COc1nc2c(C)cc(C(O)(c3ccc(Cl)cc3)c3cncn3C)cc2c(Cl)c1Cc1ccc(-n2cccn2)cc1 (single isomer, unassigned) [Example 28B, (3-(4-(1H-pyrazol-1-yl)benzyl)-4-chloro-2-methoxy-8-methylquinolin-6-yl)(4-chlorophenyl)(1-methyl-1H-imidazol-5-yl)methanol]
IC50 ([1]; HEK293T cells): 1.1 µM | inhibition at 6 µM [1]: 90% | Kd [2]: 1.6 µM

COc1nc2ccc(C(O)(c3ccc(Cl)cc3)c3cncn3C)cc2c(Cl)c1Cc1cc2ccccc2s1 (single isomer, unassigned) [Example 36B, (3-(benzo[b]thiophen-2-ylmethyl)-4-chloro-2-methoxyquinolin-6-yl)(4-chlorophenyl)(1-methyl-1H-imidazol-5-yl)methanol]
RORγt reporter Assay, % inhibition @ 6 μM ([1]; HEK293T cells, 6 μM): 62% | IC50 ([1]; HEK293T cells): 0.74 µM | Kd [2]: 0.4 µM

COc1nc2ccc(C(O)(c3ccc(F)cc3)c3cncn3C)cc2c(Cl)c1Cc1ccc(S(C)(=O)=O)cc1 (single isomer, unassigned) [Example 54B, (4-chloro-2-methoxy-3-(4-(methylsulfonyl)benzyl)quinolin-6-yl)(4-fluorophenyl)(1-methyl-1H-imidazol-5-yl)methanol]
IC50 ([1]; HEK293T cells): 2 µM | inhibition at 6 µM [1]: 86% | Kd [2]: 0.84 µM

Cn1cncc1C(O)(c1ccc(Cl)cc1)c1ccc2nc(O)c(Cc3ccc(-n4cccn4)cc3)c(Cl)c2c1 (single isomer, unassigned) [Example 55B, 3-(4-(1H-pyrazol-1-yl)benzyl)-4-chloro-6-((4-chlorophenyl)(hydroxy)(1-methyl-1H-imidazol-5-yl)methyl)quinolin-2-ol]
IC50 ([1]; HEK293T cells): 2.4 µM | inhibition at 6 µM [1]: 85% | Kd [2]: > 81 µM

COc1nc2ccc(C(O)(c3ccc(Cl)cc3)c3cncn3C)cc2c(Cl)c1Cc1ccc(-n2cncn2)cc1 (single isomer, unassigned) [Example 64B, (3-(4-(1H-1,2,4-triazol-1-yl)benzyl)-4-chloro-2-methoxyquinolin-6-yl)(4-chlorophenyl)(1-methyl-1H-imidazol-5-yl)methanol]
inhibition at 6 µM [1]: 101%

COc1nc2ccc(C(O)(c3ccc(C)nc3C)c3cnnn3C)cc2c(C#N)c1Cc1ccc(C(F)(F)F)cc1 (single isomer, unassigned) [Example 78B, 6-((2,6-Dimethylpyridin-3-yl)(hydroxy)(1-methyl-1H-1,2,3-triazol-5-yl)methyl)-2-methoxy-3-(4-(trifluoromethyl)benzyl)quinoline-4-carbonitrile]
inhibition at 6 µM [1]: 94%

OC(c1cccnc1)(c1cccc(Cl)c1)c1ccc2nc(Cl)c(Cc3ccc(Cl)cc3)c(Cl)c2c1 (stereo not drawn) [Example 2, (3-Chlorophenyl)-(2,4-dichloro-3-(4-chlorobenzyl)quinolin-6-yl)-(pyridin-3-yl)methanol.TFA]
IC50 ([1]; HEK293T cells): 0.05 µM | inhibition at 6 µM [1]: 70%

OC(c1cccnc1)(c1cccc(Cl)c1)c1ccc2nc(Cl)c(Cc3ccc(F)cc3)c(Cl)c2c1 (stereo not drawn) [Example 3, (3-Chlorophenyl)-(2,4-dichloro-3-(4-fluorobenzyl)quinolin-6-yl)-(pyridin-3-yl)methanol.TFA]
IC50 ([1]; HEK293T cells): > 6 µM | inhibition at 6 µM [1]: 30%

COc1ccc(C(O)(c2ccc3nc(Cl)c(Cc4ccc(-n5cccn5)cc4)c(Cl)c3c2)c2cncn2C)cn1 (stereo not drawn) [Example 21, (3-(4-(1H-Pyrazol-1-yl)benzyl)-2,4-dichloroquinolin-6-yl)(6-methoxypyridin-3-yl)(1-methyl-1H-imidazol-5-yl)methanol.TFA]
inhibition at 6 µM [1]: 103%

COc1ccc(Cc2cc3cc(C(O)(c4cncs4)c4cncn4C)ccc3nc2Cl)cc1 (stereo not drawn) [Example 52, (2-chloro-3-(4-methoxybenzyl)quinolin-6-yl)(1-methyl-1H-imidazol-5-yl)(thiazol-5-yl)methanol.TFA]
IC50 ([1]; HEK293T cells): > 6 µM | inhibition at 6 µM [1]: 34%

COc1nc2ccc(C(O)(c3ccc(C(F)(F)F)nc3)c3cncn3C)cc2c(Cl)c1Cc1ccc(S(C)(=O)=O)cc1 (stereo not drawn) [Example 53, (4-Chloro-2-methoxy-3-(4-(methylsulfonyl)benzyl)quinolin-6-yl)(1-methyl-1H-imidazol-5-yl)(6-(trifluoromethyl)pyridin-3-yl)methanol]
IC50 ([1]; HEK293T cells): 0.046 µM | inhibition at 6 µM [1]: 101%

COc1nc2ccc(C(O)(c3ccc(Cl)cc3)c3cncn3C)cc2c(Cl)c1Cc1ccc(-n2cncn2)cc1 (stereo not drawn) [Example 64A, (3-(4-(1H-1,2,4-Triazol-1-yl)benzyl)-4-chloro-2-methoxyquinolin-6-yl)(4-chlorophenyl)(1-methyl-1H-imidazol-5-yl)methanol]
inhibition at 6 µM [1]: 99%

Cn1cncc1C(O)(c1ccc(Cl)cc1)c1ccc2nc(C#N)c(Cc3ccc(-n4cccn4)cc3)c(C#N)c2c1 (stereo not drawn) [Example 71A, 3-(4-(1H-Pyrazol-1-yl)benzyl)-6-((4-chlorophenyl)(hydroxy)(1-methyl-1H-imidazol-5-yl)methyl)quinoline-2,4-dicarbonitrile]
IC50 ([1]; HEK293T cells): 0.11 µM | inhibition at 6 µM [1]: 97%

COc1nc2ccc(C(O)(c3ccc(C)nc3C)c3cnnn3C)cc2c(Cl)c1Cc1ccc(C(F)(F)F)cc1 (stereo not drawn) [Example 77A, (4-Chloro-2-methoxy-3-(4-(trifluoromethyl)benzyl)quinolin-6-yl)(2,6-dimethylpyridin-3-yl)(1-methyl-1H-1,2,3-triazol-5-yl)methanol]
inhibition at 6 µM [1]: 103%

COc1nc2ccc(C(O)(c3ccc(C)nc3C)c3cnnn3C)cc2c(C#N)c1Cc1ccc(C(F)(F)F)cc1 (stereo not drawn) [Example 78A, 6-((2,6-Dimethylpyridin-3-yl)(hydroxy)(1-methyl-1H-1,2,3-triazol-5-yl)methyl)-2-methoxy-3-(4-(trifluoromethyl)benzyl)quinoline-4-carbonitrile]
inhibition at 6 µM [1]: 97%

COc1nc2ccc(C(O)(c3cnnn3C)c3cnc(C)n3C)cc2c(Cl)c1Cc1ccc(C(F)(F)F)cc1 (stereo not drawn) [Example 80A, (4-Chloro-2-methoxy-3-(4-(trifluoromethyl)benzyl)quinolin-6-yl)(1,2-dimethyl-1H-imidazol-5-yl)(1-methyl-1H-1,2,3-triazol-5-yl)methanol]
inhibition at 6 µM [1]: 103%

CCc1nc2ccc(C(O)(c3cnnn3C)C3CN(S(C)(=O)=O)C3)cc2c(Cl)c1Cc1ccc(C(F)(F)F)cc1 (stereo not drawn) [Example 91A, (4-Chloro-2-ethyl-3-(4-(trifluoromethyl)benzyl)quinolin-6-yl)(1-methyl-1H-1,2,3-triazol-5-yl)(1-(methylsulfonyl)azetidin-3-yl)methanol]
inhibition at 6 µM [1]: 100%
